# Reference: patent publication US5744492A, “Method for inhibiting angiogenesis” (United States of America, priority 1994, dated 1998)
# Legend:
# [1] = system: bFGF receptor; test: bFGF-induced tyrosine phosphorylation in HUVECs (phosphotyrosine immunoprecipitation and Western analysis); format: cell-based, human; settings: 10 μM
# Description: (§1) Human umbilical vein endothelial cells (H 930) were generously supplied by Dr. Tom Maciag, American Red Cross (Gaithersburg, Md., USA) and were used between passages 9 and 14 to avoid senescence. HUVECs were grown on fibronectin-coated tissue culture plastic (200 μg/150 mm dish) in complete medium (Medium 199 (M-199) containing 5 U/mL preservative-free heparin, 25.5 μg/mL ECGS, 10% fetal bovine serum and 100 U/mL penicillin, 100 μg/mL streptomycin, and 0.25 μg/mL fungizone).
# It exerts its activity through activation of the bFGF receptor kinase with subsequent autophosphorylation of its receptor as well as phosphorylation of other signaling proteins. See, Jaye, et al., Biochim. Biophys. Acta 1135:185-199 (1992). Phosphotyrosine immunoprecipitation and Western analysis were used to investigate the effect of compound 1 on bFGF-mediated tyrosine phosphorylation.
# The following day, cells were exposed to bFGF, 10 ng/mL for 15 min at 37° C. Cells were quickly washed with cold DPBS, scraped from the plate and lysed with lysis buffer (50 mM Tris-HCl pH 7.6, 300 mM NaCl, 10 μg/mL aprotinin, 1 mM phenylmethylsulphonylfluoride (PMSF), 400 μM sodium orthovanadate, 400 μM EDTA, 100 mM sodium fluoride, 100 mM sodium pyrophosphate, and 0.5% Triton-X 100) for 1 hr on ice. The lysates were centrifuged at 4° C. at 1200×g for 15 minutes after which the supernatants were saved and protein concentration determined using bicinchoninic assay protein detection method. Aliquots of lysis protein ([…] per sample) were incubated with 10 μg of anti-phosphotyrosine monoclonal antibody, 4G10, pre-conjugated to protein A-sepharose beads for 1 hr at 4° C. The beads were washed three times with buffer containing 0.1% Triton X-100 and then the immunoprecipitated proteins were eluted with 2X Laemmli sample buffer and subjected to 4-12% gradient gel electrophoresis. Proteins were transferred electrically, blocked (7.5% glycine, 5% dry milk, 1% ovalbumin) for 30 min at room temperature, then washed (0.001% ovalbumin, 0.001% dry milk, 0.001% Tween-20 in phosphate-buffered saline (PBS)). […]
# [2] = system: MMP-2; test: Gelatin zymography of HUVEC conditioned medium, bFGF-stimulated proMMP-2 and its activated form; format: cell-based; settings: Homo sapiens, bFGF 10 ng/mL for final 24 hr, read-out: inhibition of bFGF-stimulated synthesis of proMMP-2 and its activated form
# Description: as §1
# Gelatin zymography was carried out as described in Brown, et al., Cancer Research 50:6184-6191 (1990). HUVECs were seeded at 1.2×10^5 /cm^2 in 25 cm^2 fibronectin-coated tissue culture flasks in complete medium containing increasing concentrations of compound 1 (0.1-10 μM) or DMSO vehicle control. After 18 hr of culture, the complete medium was removed and the cells were washed once with serum-free M-199 supplemented with 5 μg/mL bovine insulin, 5 μg/mL human transferrin and 5 ng/mL sodium selenite (ITS). A further 24 hr incubation was carried out with 3 mL of fresh ITS-containing M-199 and varying concentrations of compound 1 (0.1-10 μM) or DMSO vehicle control (0.1%). This conditioned medium was harvested and spun free of cells.
# See, Rifkin, et al., J. Cell Biol. 109:1-6 (1989). […]
# [3] = system: HUVECs; test: HUVEC vascular tube formation on Matrigel; format: cell-based, human; settings: 24 hr
# Description: as §1
# After 12-24 hours, this rearrangement leads to the development of a network of tube-like structures that resemble capillaries. See, Kubota, et al., J. Cell Biol. 107:1589-1598 (1988).
# Matrigel is a solution of murine basement membrane enriched for laminin and collagen type IV and has been used previously as a permissive substrate for vessel formation. See, Albini, et al., Int. J. Oncol. 1:723-730 (1992). The effect of compound 1 on in vitro tube formation was tested using this system. Individual wells of 24 well plates were coated with a 300 μL aliquot of concentrated Matrigel solution (10 mg/mL) and allowed to solidify for 1 hr at 37° C. Compound 1 (1.0, 10 or 20 μM) or DMSO control (0.1%) was added to Matrigel and to the culture media. HUVECs (50,000 cells/well) were incubated on the Matrigel in complete medium for 24 hr then evaluated by phase contrast microscopy and photographed.
structure (smiles),measurement,setting,value
"NC(=O)c1nnn(Cc2cc(Cl)c(C(=O)c3ccc(Cl)cc3)c(Cl)c2)c1N [Compound 1, 5-amino-1-(4-(4-chlorobenzoyl)-3,5-dichlorobenzyl)1,2,3-triazole-4-carboxamide]",effect on bFGF-stimulated tyrosine phosphorylation (in words),"[1]; 18 hr, bFGF 10 ng/mL for final 15 minutes",inhibition of bFGF-stimulated phosphorylation
same,"effect on bFGF-stimulated tyrosine phosphorylation, including autophosphorylation of bFGF receptor (in words)",[1]; bFGF 10 ng/mL,blocked bFGF-stimulated tyrosine phosphorylation
same,effect on basal tyrosine phosphorylation (in words),[1]; no bFGF,"Neither DMSO control (lane 1) or compound 1 (10 μM, lane 2) altered basal tyrosine phosphorylation"
same,inhibition at 10 µM,[2],90%
same,inhibition of tube formation (in words),"[3]; 20 μM, similar when omitted from the Matrigel",more striking inhibition of tube formation
same,appearance of multicellular tubes vs DMSO control (in words),"[3]; compound in Matrigel and media, similar when only in media","less extensive, thinner, foreshortened, and less cellular"
